Measurements as given in ChEMBL document CHEMBL1123068, “2-Fluoroformycin and 2-aminoformycin. Synthesis and biological activity” (J Med Chem, 1985).

test: Ratio of kinetic parameters Vmax to the of Km.

Structure (SMILES) | Ratio
Nc1nc(F)nc2c1ncn2[C@@H]1O[C@H](CO)[C@@H](O)[C@@H]1O | 0.0096
Nc1nc(N)c2ncn([C@@H]3O[C@H](CO)[C@@H](O)[C@H]3O)c2n1 | 3.6
Nc1ncnc2c1ncn2[C@@H]1O[C@H](CO)[C@@H](O)[C@H]1O | 15
